The data set is described as follows: Solubility in 25° C. water of the poorly water-soluble substance. The note with it: poorly water-soluble substance itself (ingredient). Type of data set: physicochemical.

Take `COc1ccc(-c2cc(=O)c3c(OC)c(OC)c(OC)c(OC)c3o2)cc1OC` [Nobiletin, 3′,4′,5,6,7,8-hexamethoxyflavone]: the “Solubility in 25° C. water” value is given as 1 ppm.
The figure for `O=c1oc2c(O)c(O)cc3c(=O)oc4c(O)c(O)cc1c4c23` [Ellagic acid, ellagic acid] is 4 ppm.

The values are drawn from patent US11236060B2, “Method for producing solid dispersion containing nobiletin” (KAO CORPORATION, priority 2018, dated 2022).
